In patent publication US9273095B2, “Antibiotic peptide and preparation method therefor and application therefor” (priority 2011, dated 2016):
Like-named read-outs stand apart in the source and are kept apart here. Non-standard residues stand in square brackets, D forms with d. No end group written: not given here.

Assays:
[1] = tested on: red cell suspension from healthy volunteers; experiment: Hemolytic activity test; assay type: cell-based, human; details: for Hemolytic activity, absorbancy (OD value) at 570 nm: 4 hours at 37° C., OD higher than 0.1 is hemolytic, n = 3
Protocol: (1) Samples are serial diluted with sterile PBS to 1000, 500, 250, 125, 64, 32, 16, 8, 4 μg/ml in turn and spread in 96-well plates, 100 μl per orifice.
(2) We use distilled water as positive control, sterile PBS as negative control and blank orifice with 200 μl PBS solution added. Each concentration above is made in triplicate.
(3) We take 3 ml whole blood from healthy volunteers and washed it with sterile PBS three times to prepare fresh 2% concentration red cell suspension. Then we added 100 μl red cell suspension into each orifice and made them cultured for 4 hours at 37° C. in the incubator. After centrifuged by plate-swashing centrifuge, the supernatant liquid is collected and measured absorbancy (OD value) at a wavelength of 570 nm. Then we compared the hemolytic efficiency of these concentrations.
(4) According to the documents standard, OD value which is higher than 0.1 is hemolytic concentration.

[2] = tested on: Shigella; experiment: microbe, parasite or virus in culture; assay type: cell-based
Protocol: (§1) The experimental strains are 37 standard strains preserved in lab and clinical isolated bacteria, including drug-resistant bacteria and quality-control bacteria selecting Staphylococcus aureus ATCC29213, Enterococcus faecalis ATCC29212, Escherichia coli ATCC25922, Pseudomonas aeruginosa ATCC27853 and klebsiella pneumoniae ATCC700603.
(§2) (1) Sensitivity test is conducted with two-fold agar dilution method and Denlay multipoint inoculator. Test bacteria are cultured with nutrient broth and brain heart infusion.
(§3) (2) The drug is double diluted into different concentration with MH broth after dissolved and then placed in the plate respectively.
(§4) (3) After dissolved, MH agar culture medium are injected into the plate with drug quantitatively and mixed to make the final concentration of drug are 0.03, 0.06, 0.125, . . . , 128 μg/ml respectively.
(§5) (4) After solidification of the culture medium in the plate, test bacteria (10^4CFU/point) are inoculated by multipoint inoculator and cultured for 18 hours at constant 35° C. Then observe the results.

[3] = tested on: Enterobacter cloacae; experiment: microbe, parasite or virus in culture; assay type: cell-based
Protocol: as §1, §2, §3, §4, §5

[4] = tested on: Shigella flexneri; experiment: microbe, parasite or virus in culture; assay type: cell-based
Protocol: as §1, §2, §3, §4, §5

[5] = tested on: Salmonella typhimurium; experiment: microbe, parasite or virus in culture; assay type: cell-based; details: murium
Protocol: as §1, §2, §3, §4, §5

[6] = tested on: Staphylococcus epidermidis; experiment: microbe, parasite or virus in culture; assay type: cell-based
Protocol: as §1, §2, §3, §4, §5

[7] = tested on: Enterobacter aerogenes; experiment: microbe, parasite or virus in culture; assay type: cell-based
Protocol: as §1, §2, §3, §4, §5

[8] = tested on: Proteus vulgaris; experiment: microbe, parasite or virus in culture; assay type: cell-based
Protocol: as §1, §2, §3, §4, §5

[9] = tested on: Staphylococcus aureus; experiment: microbe, parasite or virus in culture; assay type: cell-based
Protocol: as §1, §2, §3, §4, §5

[10] = tested on: Feilaoti citrobacter; experiment: microbe, parasite or virus in culture; assay type: cell-based
Protocol: as §1, §2, §3, §4, §5

[11] = tested on: Serratia marcescens; experiment: microbe, parasite or virus in culture; assay type: cell-based
Protocol: as §1, §2, §3, §4, §5

[12] = tested on: Escherichia coli; experiment: microbe, parasite or virus in culture; assay type: cell-based; details: 08-5 (ESBLs) Extended Spectyumβ-lactamase
Protocol: as §1, §2, §3, §4, §5

[13] = tested on: Acinetobacter calcoaceticus; experiment: microbe, parasite or virus in culture; assay type: cell-based
Protocol: as §1, §2, §3, §4, §5

[14] = tested on: Shigella sonnei; experiment: microbe, parasite or virus in culture; assay type: cell-based; details: Shigella sonnei strains 51592
Protocol: as §1, §2, §3, §4, §5

[15] = tested on: Typhoid bacillus H901; experiment: microbe, parasite or virus in culture; assay type: cell-based
Protocol: as §1, §2, §3, §4, §5

[16] = tested on: aspergillus fumigatus; experiment: microbe, parasite or virus in culture; assay type: cell-based
Protocol: (§6) • (1) Test strains: monilia albicans (candida albicans), candida glabrata, candida krusei, candida tropicalis, aspergillus fumigatus and flavous. Antimicrobial peptides PL-13 (SEQ ID NO: 1) under test are supplied by Jiangsu ProteLight Pharmaceutical & Biotechnology Co., LTD. […] Activation of bacterial strains is conducted at a humidity level of 60% and 25° C. (for aspergillus) or 37° C. (for candida). (2) 0.9% stroke-physiological saline solution comprising 0.5% Tween-80 is used to prepare bacterial suspension for experiment. Hemocytometer is utilized to adjust concentration of the bacterial suspension to 1-3×10^6 CFU/ml (0.5 McFarland units) to make stock solution in reserve at -20° C. During the sensitivity test, the RPMI-1640 liquid medium is diluted 1000 times to 1-3×10^3 CFU/ml. (3) The RPMI-1640 liquid is utilized as diluent to 10-fold dilute stock solution of peptides. […] The eleventh orifice is used as living control orifice, while the twelfth one as blank control. (4) The RPMI-1640 liquid is utilized as diluent to 10-fold dilute stock solution of FCZ and ICZ. […] Ditto for other operations.

[17] = tested on: aspergillus flavous; experiment: microbe, parasite or virus in culture; assay type: cell-based
Protocol: as §6

[18] = tested on: candida krusei; experiment: microbe, parasite or virus in culture; assay type: cell-based
Text: • (1) Test strains: monilia albicans (candida albicans), candida glabrata, candida krusei, candida tropicalis, aspergillus fumigatus and flavous. (2) Quality control strains: candida krusei JLC30366 (ATCC6258). Antimicrobial peptides PL-13 (SEQ ID NO: 1) under test are supplied by Jiangsu ProteLight Pharmaceutical & Biotechnology Co., LTD. […] (1) The bacterial strains which preserved on PDA slant are respectively inoculated onto PDA plate and slant medium. Activation of bacterial strains is conducted at a humidity level of 60% and 25° C. (for aspergillus) or 37° C. (for candida). (2) 0.9% stroke-physiological saline solution comprising 0.5% Tween-80 is used to prepare bacterial suspension for experiment. Hemocytometer is utilized to adjust concentration of the bacterial suspension to 1-3×10^6 CFU/ml (0.5 McFarland units) to make stock solution in reserve at -20° C. During the sensitivity test, the RPMI-1640 liquid medium is diluted 1000 times to 1-3×10^3 CFU/ml. (3) The RPMI-1640 liquid is utilized as diluent to 10-fold dilute stock solution of peptides. […] The eleventh orifice is used as living control orifice, while the twelfth one as blank control. (4) The RPMI-1640 liquid is utilized as diluent to 10-fold dilute stock solution of FCZ and ICZ. […] Ditto for other operations.

[19] = target: PL-18 (SEQ ID NO: 1); experiment: RP-HPLC temperature profiling 5-80 C, normalised to random coil peptide C; self-association of the peptide with itself
[20] = target: PL-51 (SEQ ID NO: 30); experiment: as above
[21] = target: PL-34 (SEQ ID NO: 6); experiment: as above
[22] = target: PL-43 (SEQ ID NO: 24); experiment: as above
[23] = target: PL-40 (SEQ ID NO: 18); experiment: as above

Ac-FKKLKKLFSKLLNLK-NH2 [PL-26]
Hemolytic activity, absorbancy (OD value) at 570 nm ([1]; peptide 7.8125 μg/ml): 0.020
Hemolytic activity, absorbancy (OD value) at 570 nm ([1]; peptide 15.625 μg/ml): 0.047
Hemolytic activity, absorbancy (OD value) at 570 nm ([1]; peptide 31.25 μg/ml): 0.057
Hemolytic activity, absorbancy (OD value) at 570 nm ([1]; peptide 62.5 μg/ml): 0.068
Hemolytic activity, absorbancy (OD value) at 570 nm ([1]; peptide 125 μg/ml): 0.075
Hemolytic activity, absorbancy (OD value) at 570 nm ([1]; peptide 250 μg/ml): 0.089
Hemolytic activity, absorbancy (OD value) at 570 nm ([1]; peptide 500 μg/ml): 0.121
Hemolytic activity, absorbancy (OD value) at 570 nm ([1]; peptide 1000 μg/ml): 0.327
hemolytic toxicity (in words) ([1]; summary of Table 9): little hemolytic toxicity
MIC [2]: 0.3 µM
MIC [3]: 1.7 µM
MIC [4]: 1.3 µM
MIC [5]: 5.3 µM
MIC [6]: 0.7 µM
MIC ([6]; 08-17 (MSSE) Meticillin susceptible staphylococcus epidermidis): 2.7 µM
MIC ([6]; 08-18 (MRSE) Methicillin-resistant staphylococcus epidermidis): 2.7 µM
MIC [7]: 1.3 µM
MIC [8]: 6.7 µM
MIC ([9]; 08-49(MSSA) Meticillin susceptible staphylococcus aureus): 1.3 µM
MIC ([9]; 08-52(MRSA) Methicillin-resistant staphylococcus aureus): 1.3 µM
MIC ([9]; Staphylococcus aureus ATCC25923): 1.3 µM
MIC ([9]; Staphylococcus aureus ATCC29213): 1.3 µM
MIC ([9]; strain 15 (listed under Staphylococcus aureus)): 1.3 µM
MIC [10]: 2.7 µM
MIC [11]: 0.02 µM
MIC [12]: 1.3 µM
MIC [13]: 6.7 µM
MIC [14]: 1.3 µM
MIC [15]: 2.7 µM
Minimal inhibitory concentration [16]: 32 mg/L
Minimal inhibitory concentration [17]: >64 mg/L
Minimal inhibitory concentration [18]: 8 mg/L

B1: PL-18 (SEQ ID NO: 1) (peptide)
peptide: Ac-[dF][dK][dK][dL][dK][dK][dL][dF][dS][dK][dL][dW][dN][dW][dK]-NH2
SMILES: CC(=O)N[C@H](Cc1ccccc1)C(=O)N[C@H](CCCCN)C(=O)N[C@H](CCCCN)C(=O)N[C@H](CC(C)C)C(=O)N[C@H](CCCCN)C(=O)N[C@H](CCCCN)C(=O)N[C@H](CC(C)C)C(=O)N[C@H](Cc1ccccc1)C(=O)N[C@H](CO)C(=O)N[C@H](CCCCN)C(=O)N[C@H](CC(C)C)C(=O)N[C@H](Cc1c[nH]c2ccccc12)C(=O)N[C@H](CC(N)=O)C(=O)N[C@H](Cc1c[nH]c2ccccc12)C(=O)N[C@H](CCCCN)C(N)=O
PA (self-association parameter) [19]: 0.56 min

[dL][dF][dK][dK][dL][dK][dK][dL][dF][dS][dK][dL][dW][dN][dW][dK] [PL-51 (SEQ ID NO: 30)]
PA (self-association parameter) [20]: 1.63 min

[dF][dK][dK][dL][dK][dK][dK][dF][dS][dK][dL][dW][dN][dW][dK] [PL-34 (SEQ ID NO: 6)]
PA (self-association parameter) [21]: 0.81 min

[dF][dK][dK][dF][dK][dK][dL][dL][dS][dK][dL][dW][dN][dW][dK] [PL-43 (SEQ ID NO: 24)]
PA (self-association parameter) [22]: 1.65 min

[dK][dL][dK][dK][dL][dF][dS][dK][dL][dW][dN][dW][dK] [PL-40 (SEQ ID NO: 18)]
PA (self-association parameter) [23]: 0.55 min
